Assay results reported in patent publication US20060121483A1, “Methods for detecting teneurin signalling and related screening methods” (priority 2002, published 2006).
Where a SMILES comes first, the peptide text is derived from it. [ ]: non-standard residue; d: D form. Nle = CCCC[C@H](N)C(=O)O

What was measured:
Format in all cases: cell-based
BDAD-CTEY = assay: BDAD-teneurin-2 fusion GAL4 luciferase reporter (cleavage) assay; conditions: addition of protease inhibitors; ALLN 25 μg/ml, lactacystin 10 μM
Protocol: (§1) HT1 080 human fibrosarcoma (ATCC CRL-12012) and COS-7 cells (SV40-transformed kidney fibroblasts from the African green monkey, ATCC CRL-1651) were routinely maintained In DMEM medium (Dulbecco's Modified Eagles Medium) supplemented with 10% FCS (fetal calf serum). For transient transfections the cells were seeded in 6-well plates or 4-well staining dishes (Greiner). Twelve hours later they were transfected with the expression vectors containing the constructs (1 μg of each vector) described above and in Example 2 (Zic), Example 4 and Example 5 by using FUGENE-6 (3 μl, 6 μl or 9 μl for one, two to three, or four different plasmids, respectively). […]
The cells were lysed by adding reporter lysis buffer (Promega). Serial dilutions of the lysed cell suspension were then pipetted into Microlite™ luciferase plates (Dynex Technologies) and the luciferase activity was measured in a Microlumat (LB96P, EG+G Berthold) by automatic injection of luciferin substrate solution (2 mM luciferin, 100 mM ATP in 250 mM glycin pH 7.8, 150 mM MgSO4). […] To stop the enzymatic reaction, three times the sample volume of 1 M Na2CO3 was added and the OD was measured at 405 nm in a microplate reader (BioRad). […]

teneurin-2 CTE = assay: Western blot of teneurin-2 CTE and its cleavage products; conditions: two cleavage products, one the size of the cytoplasmic domain alone
Protocol: as §1, with “respectively). The cells were treated with the following substances at least five hours after transfection: ALLN (25 μg/ml; N-acetyl-leu-leu-norleu-AL; Sigma); tunicamycin (2 μg/ml; Sigma) or lactacystin (10 μM; e.g. Sigma) for four or eight hours prior to harvesting.” for “respectively).”
(§2) The gels were transferred to PVDF (polyvinylidene fluoride) membranes. The proteins were detected by anti-GAL4 antibody (BDAD and BDAD-C) or by anti-teneurin-2 serum (BDAD-CTE and BDAD-CTEY), horseradish peroxidase coupled secondary antibodies and ECL SuperSignal® (Pierce).

[1] = test system: transcriptional activity of Zic; assay: Zic / ApoE-luciferase reporter assay in EcR 293 stable transfectants
teneurin-2 C = assay: Teneurin-2 C expression level after co-transfection with Zic; conditions: HT1080 cells, transient co-transfection of teneurin-2 C and Zic; lactacystin 10 μM
Protocol: as §1, with “respectively). The cells were treated with the following substances at least five hours after transfection: ALLN (25 μg/ml; N-acetyl-leu-leu-norleu-AL; Sigma); tunicamycin (2 μg/ml; Sigma) or lactacystin (10 μM; e.g. Sigma) for four or eight hours prior to harvesting.” for “respectively).”
as §2
In this Example, it was determined whether the zinc finger transcription factor Zic, a vertebrate homologue of opa would influence, or be influenced by, the cytoplasmic domain of teneurin-2. […]

K3 cells = assay: Proliferation assay, K3 cells; conditions: 5 day period, crystal violet, ponasterone induces the cytoplasmic domain of teneurin-2
Protocol: (§3) The effect of the expression of the cytoplasmic domain of teneurin-2 on cell proliferation was tested. K3 cells (EcR-293 cells (Invitrogen) containing the stably integrated plasmid pVgRXR (Invitrogen) and the plnd teneurin-2 plasmid encoding the cytoplasmic domain, described in Example 7) were cultured in the presence or absence of ponasterone, which induces expression of the cytoplasmic domain of teneurin-2. Typically, over a 5 day period, parallel cultures were fixed with 4% formaldehyde every day and cell numbers were determined by staining the cells with crystal violet (0.1% in H20). In the presence of ponasterone and thus in the presence of the cytoplasmic domain of teneurin, the K3 cells were retarded in their growth rate to about 50% of the untreated cells. Proliferation of EcR-293 cells without transfected cytoplasmic domain of teneurin-2 was not affected by the addition of ponasterone, proving that the growth retardation was specifically dependent on the presence of the cytoplasmic domain of teneurin-2.

EcR-293 cells = assay: Proliferation assay, EcR-293 cells; conditions: EcR-293 cells without transfected cytoplasmic domain of teneurin-2
Protocol: as §3

SMILES | induction of luciferase activity following transfection of BDAD-CTEY (BDAD-CTEY) | stabilisation of cleavage products of CTE (western blot) (teneurin-2 CTE) | stabilization of teneurin-2 C ([1]; ALLN 25 μg/ml) | inhibitory effect of teneurin-2 C on the transcriptional activity of Zic (ApoE-luciferase reporter) ([1]; EcR 293 cells, teneurin-2 C induced by ponasterone, in the presence of ALLN) | Zic induced downregulation of teneurin-2 C (teneurin-2 C) | growth rate relative to untreated cells (K3 cells) | proliferation (EcR-293 cells) | expression level of the reporter gene (ApoE-luciferase) after induction of teneurin-2 C ([1]; EcR 293 stable transfectants transiently transfected with Zic, ponasterone induces teneurin-2 C)
CCCC[C@@H](C=O)NC(=O)[C@H](CC(C)C)NC(=O)[C@H](CC(C)C)NC(C)=O [ALLN, N-acetyl-leu-leu-norleu-AL] (Ac-Leu-Leu-[Nle]-aldehyde) | markedly upregulated | stabilisation of two particular cleavage products | stabilize teneurin-2 C | more pronounced | – | – | – | –
CC(=O)N[C@@H](CSC(=O)[C@]1([C@@H](O)C(C)C)NC(=O)[C@H](C)[C@@H]1O)C(=O)O [lactacystin] | markedly upregulated | – | – | – | counteracted | – | – | –
CC(C)CC[C@@H](O)[C@](C)(O)[C@H]1CC[C@@]2(O)C3=CC(=O)[C@@H]4C[C@@H](O)[C@@H](O)C[C@]4(C)[C@H]3CC[C@]12C [ponasterone] | – | – | – | – | – | about 50% | not affected | marked reduction
